Results as given in PubChem BioAssay AID2060627 (Molecular Pharmacology Branch, DTP, NCI, 2025).

System: 156681-154-R-J1-PDC complex spheroid viability
Test: Anticancer human tumor 156681-154-R-J1-PDC patient-derived melanoma cell line growth inhibition [CLK]
Conditions: for IC50: curve of first compound; for viability, T/C: stronger effect = lower value
Procedure, shortened: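 Patient-derived tumor cells grown as complex spheroids with HUVEC endothelial cells and mesenchymal stem cells, treated with drug combinations. Concentrations descend in half-log steps from near clinical Cmax, or from 10 microM if Cmax unknown.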

[1] = second compound 0.0316 µM, first compound 0.0316 µM
[2] = second compound 0.0316 µM, first compound 0.1 µM
[3] = second compound 0.0316 µM, first compound 0.316 µM
[4] = second compound 0.0316 µM, first compound 1 µM
[5] = second compound 0.0316 µM, first compound 3.16 µM
[6] = second compound 0.0316 µM, first compound 10 µM
[7] = second compound 0.1 µM, first compound 0.0316 µM
[8] = second compound 0.1 µM, first compound 0.1 µM
[9] = second compound 0.1 µM, first compound 0.316 µM
[10] = second compound 0.1 µM, first compound 1 µM
[11] = second compound 0.1 µM, first compound 3.16 µM
[12] = second compound 0.1 µM, first compound 10 µM
[13] = second compound 0.316 µM, first compound 0.0316 µM
[14] = second compound 0.316 µM, first compound 0.1 µM
[15] = second compound 0.316 µM, first compound 0.316 µM
[16] = second compound 0.316 µM, first compound 1 µM
[17] = second compound 0.316 µM, first compound 3.16 µM
[18] = second compound 0.316 µM, first compound 10 µM
[19] = second compound 1 µM, first compound 0.0316 µM
[20] = second compound 1 µM, first compound 0.1 µM
[21] = second compound 1 µM, first compound 0.316 µM
[22] = second compound 1 µM, first compound 1 µM
[23] = second compound 1 µM, first compound 3.16 µM
[24] = second compound 1 µM, first compound 10 µM
[25] = second compound 3.16 µM, first compound 0.0316 µM
[26] = second compound 3.16 µM, first compound 0.1 µM
[27] = second compound 3.16 µM, first compound 0.316 µM
[28] = second compound 3.16 µM, first compound 1 µM
[29] = second compound 3.16 µM, first compound 3.16 µM
[30] = second compound 3.16 µM, first compound 10 µM
[31] = second compound 10 µM, first compound 0.0316 µM
[32] = second compound 10 µM, first compound 0.1 µM
[33] = second compound 10 µM, first compound 0.316 µM
[34] = second compound 10 µM, first compound 1 µM
[35] = second compound 10 µM, first compound 3.16 µM
[36] = second compound 10 µM, first compound 10 µM
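Also: spheroids exposed to the agents for seven days.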
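For viability, T/C in this document: 100% = DMSO vehicle control viability.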

COc1ccc([C@@H](O)c2cc(-c3ncnc4cc(N5CCOCC5)ccc34)c(F)cc2Cl)nn1 + CN1CCN(c2cc(C(=O)Nc3cc4cc(-c5cnn(C)c5)ccc4cn3)ccn2)CC1
IC50 (second compound 0.0316 µM): 2400 nM
IC50 (second compound 0.1 µM): 1450 nM
IC50 (second compound 0.316 µM): < 31.6 nM
IC50 (second compound 1 µM): < 31.6 nM
IC50 (second compound 3.16 µM): < 31.6 nM
IC50 (second compound 10 µM): < 31.6 nM
viability, T/C [1]: 109%
viability, T/C [2]: 88.3%
viability, T/C [3]: 91.3%
viability, T/C [4]: 63.6%
viability, T/C [5]: 45.3%
viability, T/C [6]: 19.2%
viability, T/C [7]: 97.5%
viability, T/C [8]: 84%
viability, T/C [9]: 73.5%
viability, T/C [10]: 58.2%
viability, T/C [11]: 35%
viability, T/C [12]: 16.8%
viability, T/C [13]: 15.7%
viability, T/C [14]: 16.9%
viability, T/C [15]: 14.8%
viability, T/C [16]: 13%
viability, T/C [17]: 8.38%
viability, T/C [18]: 2.77%
viability, T/C [19]: 0.13%
viability, T/C [20]: 2%
viability, T/C [21]: 1.91%
viability, T/C [22]: 0.33%
viability, T/C [23]: 1.72%
viability, T/C [24]: 2.7%
viability, T/C [25]: 0.06%
viability, T/C [26]: 1.44%
viability, T/C [27]: 0.99%
viability, T/C [28]: 0.08%
viability, T/C [29]: 3.19%
viability, T/C [30]: 0.56%
viability, T/C [31]: 0.06%
viability, T/C [32]: 2.47%
viability, T/C [33]: 1.95%
viability, T/C [34]: 0.88%
viability, T/C [35]: 2.45%
viability, T/C [36]: 0.51%

CCCS(=O)(=O)Nc1ccc(F)c(C(=O)c2c[nH]c3ncc(-c4ccc(Cl)cc4)cc23)c1F + CNC(=O)c1ccc(Nc2nc(OC3CCCC3)c3c(-c4ccc5nc(C)oc5c4)c[nH]c3n2)c(OC)c1
IC50 (second compound 0.0316 µM): 4960 nM
IC50 (second compound 0.1 µM): 3870 nM
IC50 (second compound 0.316 µM): 2090 nM
IC50 (second compound 1 µM): < 31.6 nM
IC50 (second compound 3.16 µM): < 31.6 nM
IC50 (second compound 10 µM): < 31.6 nM
viability, T/C [1]: 69%
viability, T/C [2]: 81.1%
viability, T/C [3]: 70.7%
viability, T/C [4]: 113%
viability, T/C [5]: 76.8%
viability, T/C [6]: 8.32%
viability, T/C [7]: 54.8%
viability, T/C [8]: 57.4%
viability, T/C [9]: 72.1%
viability, T/C [10]: 63%
viability, T/C [11]: 58.2%
viability, T/C [12]: 10.1%
viability, T/C [13]: 48%
viability, T/C [14]: 58.8%
viability, T/C [15]: 62.3%
viability, T/C [16]: 58.7%
viability, T/C [17]: 46.1%
viability, T/C [18]: 14.4%
viability, T/C [19]: 45.8%
viability, T/C [20]: 48.7%
viability, T/C [21]: 42.8%
viability, T/C [22]: 40.3%
viability, T/C [23]: 39.1%
viability, T/C [24]: 12.5%
viability, T/C [25]: 41.1%
viability, T/C [26]: 29.7%
viability, T/C [27]: 33.5%
viability, T/C [28]: 34%
viability, T/C [29]: 36.2%
viability, T/C [30]: 13.8%
viability, T/C [31]: 34.9%
viability, T/C [32]: 34.3%
viability, T/C [33]: 22.1%
viability, T/C [34]: 32.5%
viability, T/C [35]: 23.4%
viability, T/C [36]: 12.2%
